According to US20080027088A1, “Imidazole-Based Hmg-Coa Reductase Inhibitors” (Warner-Lambert Company, LLC, priority 2004, published 2008):

Columns and labels:
[1] = tested on: ApoE KO mice fed a Western diet; assay: Plasma lipoprotein cholesterol distribution by FPLC, 4 weeks; type: in vivo; conditions: doses 0.1-1.0 mg/kg/day
Experimental: Animal experiments—Male C57BI/6J and ApoE KO mice on C57BI/6J background were obtained from the Jackson Laboratory (Bar Harbor, Me.) or Taconic (Germantown, N.Y.) (Plaque formation in ApoE KO mice is lipid-driven (A. S. Plump et al., Cell. 1992;71 (2):343-53)). Myriocin was mixed with Western diet containing 0.21% cholesterol and 21% fat. 8-12-week-old mice received 0.3 mg myriocin/kg/day for 12 weeks (Table 1). 10-12 week-old ApoE KO mice (n=8) were pre-fed a western diet for 2 weeks and mice received various concentrations of myriocin for 4 weeks in diet admix. Control groups consisted of ApoE KO mice fed normal chow or Western diet without myriocin, and normal chow-fed C57BI/6J mice. Body weight and chow feeding was measured every week to examine the food consumption. For the femoral artery cuff model, 8-10 week-old male ApoE KO mice were anethetized and the right femoral artery was dissected from its surroundings. A nonconstrictive polyethylene cuff (Portex, 0.40-mm inner diameter, 0.80-mm outer diameter, and 1.5-mm length) was placed looselyaround the right femoral artery.
Plasma lipids and serum amyloid A measurement—Mice were sacrificed by CO2 inhalation and blood was collected through cardiac puncture. Plasma concentrations of total cholesterol and triglyceride were determined enzymatically on a Cobas Mira Plus auto-analyzer using Cholesterol R1 and Triglycerides Reagent methods, respectively (Roche Diagnostics, Indiana, USA). Colormetric changes were measured at 500 nm. Lipoproteins were separated from mouse plasma by fast-protein liquid chromatography utilizing a Superose 6HR column. Cholesterol distribution among lipoproteins was determined by in-line post column analysis (K. A. Kieft, T. M. Bocan and B. R. Krause, J. Lipid Res. 1991; 32:859-66). Serum Amyloid A (SAA) protein in plasma was measured by ELISA according to the manufacturer's instructions (Biosource).
FIG. 2. […] Cholesterol distribution among lipoproteins was determined by in-line post column analysis (Kieft, K. A., T. M. A. Bocan, B. R. Krause, J. Lipid Res. 1991, 32: 859-866). […]

[2] = molecular target: T1, serine palmitoyltransferase (SPT) (Mus musculus, UniProt O35704+P97363); assay: SPT activity of liver cell-free homogenate (14C-serine, palmitoyl CoA, TLC); type: in vivo, mice; conditions: 0.3 mg/kg/day, 12 weeks
T1 construct: from tissue; host or cells: mouse liver (ApoE KO and C57Bl/6J mice), cell-free homogenate
T1 sequence (P97363 1-560): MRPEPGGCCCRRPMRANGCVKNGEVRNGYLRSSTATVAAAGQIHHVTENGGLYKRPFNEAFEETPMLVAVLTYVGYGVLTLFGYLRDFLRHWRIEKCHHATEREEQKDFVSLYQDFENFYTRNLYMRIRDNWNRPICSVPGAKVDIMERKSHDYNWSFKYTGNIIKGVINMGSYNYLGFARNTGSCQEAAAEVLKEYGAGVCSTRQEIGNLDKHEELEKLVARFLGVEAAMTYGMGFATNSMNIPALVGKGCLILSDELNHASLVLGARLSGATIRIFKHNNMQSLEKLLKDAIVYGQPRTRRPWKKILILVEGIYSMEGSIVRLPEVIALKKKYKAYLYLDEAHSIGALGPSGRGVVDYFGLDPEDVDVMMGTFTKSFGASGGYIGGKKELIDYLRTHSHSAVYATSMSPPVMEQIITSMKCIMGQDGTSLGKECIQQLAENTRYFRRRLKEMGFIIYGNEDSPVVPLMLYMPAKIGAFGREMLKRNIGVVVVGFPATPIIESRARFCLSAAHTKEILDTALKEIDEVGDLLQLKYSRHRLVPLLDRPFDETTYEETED
T1 sequence (O35704 1-473): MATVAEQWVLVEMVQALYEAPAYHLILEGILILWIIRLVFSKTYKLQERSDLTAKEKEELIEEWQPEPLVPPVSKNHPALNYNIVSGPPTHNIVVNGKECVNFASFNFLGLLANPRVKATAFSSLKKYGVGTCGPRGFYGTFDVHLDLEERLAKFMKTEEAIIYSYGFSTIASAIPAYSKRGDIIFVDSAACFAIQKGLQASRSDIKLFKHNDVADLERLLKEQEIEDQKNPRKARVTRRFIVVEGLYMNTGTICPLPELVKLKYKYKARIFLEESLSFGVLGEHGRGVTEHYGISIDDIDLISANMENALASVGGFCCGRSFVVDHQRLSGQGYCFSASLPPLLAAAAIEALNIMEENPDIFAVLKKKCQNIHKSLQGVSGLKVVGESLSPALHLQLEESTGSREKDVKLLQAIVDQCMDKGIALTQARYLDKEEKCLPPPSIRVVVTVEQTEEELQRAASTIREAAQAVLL
T1 sequence (Q8R207 1-71 partner): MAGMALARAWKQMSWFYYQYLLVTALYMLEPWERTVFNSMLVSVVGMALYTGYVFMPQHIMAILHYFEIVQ
Experimental: Liver tissues from each group were homogenized and SPT activity was measured using ^14C-serine and palmitoyl CoA as substrates and thin-layer chromatography (TLC) analysis (K. Gable et al., J. Biol. Chem. 2000;275(11):7597-603). FIGS. 1-A, 1-B, 1-C, 1-D and 1-E. SPT gene expression and enzyme activity. Mice were treated with 0.3 mg/kg/day myriocin for 12 weeks by mixing with Western diet chow. Liver was isolated and total mRNA and cell-free homogenate were prepared. SPT mRNA expression was quantified by quantitative RT-PCR. Expression was described as a ratio of LCB1 (A) or LCB2 (B) mRNA to 18s RNA or to rodent GAPDH RNA (n=5, P>0.05). SPT activity of cell-free homogenate (C) was measured with ^14C-labeled Serine and palmitoyl-coenzyme A as substrates and analyzed by TLC. Relative amounts of 3-ketosphinganine were determined by densitometry scanning. The values reported are mean±SEM (n=3, *P<0.05).

`CCCCCCC(=O)CCCCCC/C=C/C[C@@H](O)[C@H](O)[C@@](N)(CO)C(=O)O` [myriocin] was tested, and the HDL-cholesterol raised [1] was 2.1 fold, the “LDL-cholesterol lowered, at maximum” value [1] was 63% and the “VLDL-cholesterol lowered, at maximum” value [1] was 83%. The “decrease of SPT activity in the liver” value ([2]; compared with the C57BI/6J control group) was 48% and the “decrease of SPT activity in the liver” value ([2]; compared with untreated Western diet-fed ApoE KO mice) was 66%.
